Key:
Experiment in all cases: relative viability (nuclei count vs DMSO), 5 days (fraction); higher = more cells survive
Gemcitabine + Trametinib = compound: Nc1ccn([C@@H]2O[C@H](CO)[C@@H](O)C2(F)F)c(=O)n1 [Gemcitabine] + CC(=O)Nc1cccc(-n2c(=O)n(C3CC3)c(=O)c3c(Nc4ccc(I)cc4F)n(C)c(=O)c(C)c32)c1 [Trametinib] (partner 0.02 µM)
Procedure, shortened: (§1)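 Lung cancer cell lines in 1536-well plates got either a single drug or a fixed anchor-drug dose together with five library-drug doses (not always all listed) in √10 steps, by pin tool, on the day after seeding. Nuclei were counted after 5 days, and relative viability is the treated-to-vehicle ratio of nuclei counts. Values are medians of duplicate plates.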

Gemcitabine + Navitoclax = compound: Nc1ccn([C@@H]2O[C@H](CO)[C@@H](O)C2(F)F)c(=O)n1 [Gemcitabine] + CC1(C)CCC(c2ccc(Cl)cc2)=C(CN2CCN(c3ccc(C(=O)NS(=O)(=O)c4ccc(N[C@H](CCN5CCOCC5)CSc5ccccc5)c(S(=O)(=O)C(F)(F)F)c4)cc3)CC2)C1 [Navitoclax] (partner 0.5 µM)
Procedure, shortened: as §1

Gemcitabine + Phenformin = compound: Nc1ccn([C@@H]2O[C@H](CO)[C@@H](O)C2(F)F)c(=O)n1 [Gemcitabine] + N=C(N)NC(=N)NCCc1ccccc1 [Phenformin] (partner 250 µM)
Procedure, shortened: as §1

Gemcitabine + Pemetrexed = compound: Nc1ccn([C@@H]2O[C@H](CO)[C@@H](O)C2(F)F)c(=O)n1 [Gemcitabine] + Nc1nc2[nH]cc(CCc3ccc(C(=O)N[C@@H](CCC(=O)O)C(=O)O)cc3)c2c(=O)[nH]1 [Pemetrexed] (partner 0.2 µM)
Procedure, shortened: as §1

Row | Cell Line | relative viability (Gemcitabine + Trametinib; first compound 0.001 µM) | relative viability (Gemcitabine + Trametinib; first compound 0.003162 µM) | relative viability (Gemcitabine + Trametinib; first compound 0.01 µM) | relative viability (Gemcitabine + Trametinib; first compound 0.03162 µM) | relative viability (Gemcitabine + Trametinib; first compound 0.1 µM) | relative viability (Gemcitabine + Navitoclax; first compound 0.001 µM) | relative viability (Gemcitabine + Navitoclax; first compound 0.003162 µM) | relative viability (Gemcitabine + Navitoclax; first compound 0.01 µM) | relative viability (Gemcitabine + Navitoclax; first compound 0.03162 µM) | relative viability (Gemcitabine + Navitoclax; first compound 0.1 µM) | relative viability (Gemcitabine + Phenformin; first compound 0.001 µM) | relative viability (Gemcitabine + Phenformin; first compound 0.003162 µM) | relative viability (Gemcitabine + Phenformin; first compound 0.01 µM) | relative viability (Gemcitabine + Phenformin; first compound 0.03162 µM) | relative viability (Gemcitabine + Phenformin; first compound 0.1 µM) | relative viability (Gemcitabine + Pemetrexed; first compound 0.001 µM) | relative viability (Gemcitabine + Pemetrexed; first compound 0.003162 µM) | relative viability (Gemcitabine + Pemetrexed; first compound 0.01 µM) | relative viability (Gemcitabine + Pemetrexed; first compound 0.03162 µM) | relative viability (Gemcitabine + Pemetrexed; first compound 0.1 µM)
1 | NCI-H1944 | 0.418 | 0.416 | 0.364 | 0.28 | 0.154 | 1.11 | 1.01 | 0.897 | 0.692 | 0.209 | 0.225 | 0.193 | 0.169 | 0.161 | 0.132 | 0.586 | 0.601 | 0.554 | 0.254 | 0.112
2 | HCC-78 | 0.749 | 0.42 | 0.373 | 0.274 | 0.231 | 0.795 | 0.428 | 0.191 | 0.119 | 0.104 | 0.581 | 0.538 | 0.285 | 0.209 | 0.233 | 0.92 | 0.879 | 0.895 | 0.9 | 0.896
3 | NCI-H2405 | 0.689 | 0.67 | 0.457 | 0.211 | 0.211 | 0.992 | 0.551 | 0.0966 | 0.084 | 0.0831 | 0.405 | 0.26 | 0.247 | 0.192 | 0.173 | 1 | 0.91 | 0.552 | 0.228 | 0.184
4 | SK-LU-1 | 0.512 | 0.373 | 0.267 | 0.161 | 0.241 | 0.526 | 0.224 | 0.0818 | 0.117 | 0.118 | 0.578 | 0.272 | 0.154 | 0.115 | 0.124 | 1.01 | 0.434 | 0.252 | 0.2 | 0.237
5 | EMC-BAC-2 | 0.938 | 0.941 | 0.524 | 0.284 | 0.273 | 1.21 | 1.17 | 1.11 | 0.147 | 0.136 | 0.566 | 0.525 | 0.425 | 0.205 | 0.204 | 0.439 | 0.454 | 0.389 | 0.27 | 0.292
6 | NCI-H1650 | 0.556 | 0.337 | 0.208 | 0.174 | 0.137 | 1.57 | 0.851 | 0.434 | 0.176 | 0.11 | 0.437 | 0.202 | 0.154 | 0.129 | 0.121 | 0.362 | 0.326 | 0.305 | 0.157 | 0.172
7 | NCI-H596 | 0.918 | 0.593 | 0.392 | 0.336 | 0.321 | 1.06 | 0.949 | 0.506 | 0.23 | 0.171 | 0.74 | 0.612 | 0.489 | 0.262 | 0.306 | 0.531 | 0.491 | 0.476 | 0.403 | 0.319
8 | LCLC-97TM1 | 0.169 | 0.143 | 0.12 | 0.126 | 0.0828 | 0.379 | 0.182 | 0.0922 | 0.0774 | 0.106 | 0.376 | 0.406 | 0.179 | 0.187 | 0.144 | 0.174 | 0.19 | 0.0994 | 0.0729 | 0.0912

— the supplement of paper PMC10307832
